# Data reported in a melting point compilation (Tetko et al.; mined from patent text by program, amines drawn as free bases though some values may be those of a salt).
row,melting point,SMILES
1,193 to 196 °C,COc1ccc(NC(=O)c2ccc(COc3ccc4c(c3)CCC(CCN3CCCCC3)C4)cc2)cc1 (stereo not drawn)
2,114 °C,CCC(=O)/C=C/c1c([N+](=O)[O-])ccc2c1OC(COS(=O)(=O)c1ccc(C)cc1)CO2 (stereo not drawn)
3,169 to 171 °C,O=C1c2ccccc2C(=O)N1CCCCc1nc[nH]n1
4,222 to 224 °C,CC(=O)Nc1c(C#N)cnn1-c1ccc(Cl)c(Cl)c1Cl
5,109 to 110 °C,Cc1oc(-c2ccco2)nc1COc1ccc(COc2ncccc2C=O)cc1
6,264 to 266 °C,CCOCc1nc2c(N)nc3cc(OCc4ccccc4)ccc3c2n1CC(C)(C)NS(C)(=O)=O
7,110 to 113 °C,COC=C(C(=O)OC)c1ccccc1[C@@H]1O[C@H]1c1ccccc1 (relative stereo)
8,110 to 112 °C,Cc1nc(-c2cccc(-c3nc4sccn4c3-c3ccnc(N[C@@H]4CCCN(C(=O)OC(C)(C)C)C4)n3)c2)no1
9,156 to 158 °C,CC(C)n1c(NC(=O)c2ccccc2)nc2ccccc2c1=O
10,112 to 119 °C,COc1cc(NC(=O)c2cccc(CSc3cnccn3)c2)cc(OC)c1OC
11,325 to 327 °C,O=c1[nH]c2ccc(Cl)cc2c2c1[nH]c1ccccc12
12,97 to 99 °C,CCOC(=O)COc1ccccc1C(=O)Nc1ccc(Sc2ccccc2-c2nnn[nH]2)cc1
13,54 to 56 °C,CCc1nc2c(s1)CC(COS(=O)(=O)c1ccc(C)cc1)CC2 (stereo not drawn)
14,194 to 195 °C,Cc1cc(C)c(S(=O)(=O)N[C@@H](CNC(=O)c2ccc3c(cnn3CCc3cc(=O)[nH]c(N)n3)c2)C(=O)O)c(C)c1
15,164 to 166 °C,CS(=O)(=O)Cc1ccc(C(=O)c2ccc(Cl)cc2)cc1
16,110 to 111 °C,CCCCc1cc(O)cc(=O)o1
17,79 to 82 °C,COC(=O)c1cccc(CN2C(=O)N(c3ccccc3Br)Cc3cnc(Nc4ccccc4)nc32)c1
18,208 to 209 °C,CN=c1nc(N)nc2sc3cc(OC)ccc3n12
19,> 250 °C,CC(C)n1nc(-c2sc(NC(=N)N)nc2-c2ccccc2)ccc1=O
20,150 to 152 °C,Cc1nc2cccc3n(CC4CCN(S(=O)(=O)C(F)(F)F)CC4)c(=O)c1n23

row,melting point,SMILES
1,146 to 147 °C,CS(=O)(=O)c1c(Cl)nc(Cl)nc1Cl
2,183 to 186 °C,CC1CCc2cc(F)cc3c(=O)c(C(=O)Cl)cn1c23 (stereo not drawn)
3,124 to 125 °C,Cc1nc(-n2cnn(Cc3ccc(C(F)(F)F)o3)c2=O)sc1C(=O)NCc1cccnc1
4,89 to 91 °C,CC(C)NC=C1C(=O)COc2ccccc2C1=O
5,196 to 197 °C,CCN1c2ncc(COc3ccc(C(=O)OC)cc3)cc2C(=O)N(C)c2ccc(Cl)nc21
6,194 to 195 °C,CC(=O)N(C)c1cccc(S(=O)(=O)c2ccc([N+](=O)[O-])cc2)c1
7,261 to 263 °C,CCCOc1ccc(S(=O)(=O)Nc2ccc3[nH]ncc3c2)cc1-c1nc2cc3nc[nH]c3cc2c(=O)[nH]1
8,216 to 217 °C,CCn1nc2c(N)nc3ccccc3c2c1CCCCN1C(=O)c2ccccc2C1=O
9,162 °C,CCOCc1nc2c(N)nc(C)c(C)c2n1CCCNC(C)=O
10,118 to 120 °C,Cc1cc(Br)c([N+](=O)[O-])c(Br)n1
11,64 to 66 °C,C=CCC1(C(=O)N2CCCCC2)c2ccccc2-c2ccccc21
12,196 to 197 °C,CC1(C)OC(=S)Nc2ccc(-c3ccc(F)c(Cl)c3)cc21
13,133 to 134 °C,CNC(=O)c1cc2c(Oc3ccc(COCCOC)cc3)cncc2s1
14,180 °C,CCOc1cccc(-c2nc(=O)c3ccccc3s2)n1
15,206 to 207 °C,CC(=O)N1CCC(c2cc(F)c(C(=O)O)cc2F)CC1
16,300 °C,O=C(NCc1c[nH]c(-c2cc3nc(C(=O)O)c(=O)[nH]c3cc2[N+](=O)[O-])n1)Nc1ccccc1F
17,111 to 113 °C,CCC1(C)NC(=O)N=C1SCc1ccccc1N(C)C (stereo not drawn)
18,244 to 251 °C,Cc1cc(CCNc2ncnc3c(F)ccc(F)c23)ccc1O
19,91 to 92 °C,COc1cccc2oc(C(=O)c3cccc(C(F)(F)F)c3)c(C)c12
20,88 to 91 °C,CNC(=NS(C)(=O)=O)SC

row,melting point,SMILES
1,132 to 133 °C,O=C(Nc1cccnc1)N1CCN(c2nc(-c3cccc(Cl)c3Cl)cs2)CC1
2,109 to 110 °C,O=C(c1ccc([N+](=O)[O-])cc1)N1CCN(CCc2ccc(Cl)cc2)CC1
3,171 to 172 °C,Cc1cc(Br)cnc1NCCCNC1=NS(=O)N=C1NCc1ccncn1 (stereo not drawn)
4,206 °C,Cc1cccc(NC(=O)NCC(=O)N(CC(=O)Oc2ccccc2)c2ccccc2)c1
5,234 to 236 °C,N#CCc1ccnc2c(NC(=O)c3c(Cl)cccc3Cl)cccc12
6,74 to 75 °C,COC(=O)CCc1cnoc1-c1ccc(Cl)c(Cl)c1
7,> 300 °C,CC(=O)N(CC=C=CC=c1c(C)c2c(n(C)c1=O)=NN(c1ccccc1)C2=O)c1ccccc1
8,177 °C,Cn1c(=O)cc(-c2ccccc2)c2cc(C(COCc3ccc(Cl)cc3)(c3ccc(Cl)cc3)n3ccnc3)ccc21 (stereo not drawn)
9,232 to 234 °C,Nc1ncccc1C(=O)NCCCOc1ccc(-c2ccc(=O)[nH]n2)cc1
10,114 to 115 °C,COC(=O)c1ccc2oc(CCl)c(C)c2c1
11,317 to 318 °C,NC(=O)[C@H]1CCc2c(sc3nc(CN4C(=O)COC4=O)c(Cl)c(-c4ccc(O)cc4)c23)C1
12,216 to 217 °C,Nc1nc2c(c(Nc3ccc(Cl)cc3)n1)-c1ccccc1C2
13,166 to 169 °C,CCOC(=O)C1=C(NC(=O)Nc2cc(OC(C)C)c(Cl)cc2F)CCC1
14,140 to 142 °C,COc1ccc2sc(C(=O)O)nc2c1[N+](=O)[O-]
15,85 to 87 °C,CS(=O)(=O)OC1CN(C(c2ccccc2)c2ccccc2)C1
16,82 to 83 °C,CC(=O)N(C)Cc1ccc(OCc2ccc(F)cc2)cc1
17,88 to 89 °C,Cc1ccsc1-c1nc(COc2ccc(CCCCn3ccnc3)cc2)co1
18,97 to 98 °C,COC(=O)c1nn(-c2c(Cl)cc(C(F)(F)F)cc2Cl)c(OC)c1SC(F)(F)F

# Continued, molecule first:
row,SMILES,melting point
1,NS(=O)(=O)c1ccccc1-c1ccc(C(=O)N2Cc3ccc(C(=O)NCc4cccnc4)n3Cc3ccccc32)cc1,153 to 156 °C
2,CC(CN1CCN(c2cccc(C(F)(F)F)c2)CC1)C(O)c1ccc2c(c1)oc(=O)n2C (stereo not drawn),92 °C
3,N#Cc1ccc(N2CCC(C(N)=O)CC2)c2ccccc12,249 to 250 °C
4,N#CC(=NNc1ccc(C(=O)O)cc1)C(N)=C(C#N)C#N,> 300 °C
5,c1ccc2c(c1)CCSO2,119 to 120 °C
6,CC(C)(C)c1ccc(C(CCCN2CCC(=NO)CC2)OC2CCCCO2)cc1 (stereo not drawn),150 to 151 °C
7,COc1ccc(COc2ccc(-c3ccc(C#N)c(=O)[nH]3)cc2OC)cc1OC,220 to 221 °C
8,CC(C)=CCCC(C)=CCOc1ccc(C(=O)NCc2ccncc2)cc1,108 to 110 °C
9,CC(=O)NC[C@H]1CN(c2ccc(C3CCN(C(=O)CO)CC3)c(F)c2)C(=O)O1,182 to 183 °C
10,CN(C)C(=O)c1nc2n(n1)-c1ccc(Cl)cc1C(c1ccccc1F)=NC2,180 to 182 °C
11,CNc1ccc(Cl)cc1C(=N)c1ccccc1,93 to 95 °C
12,CCOC(=O)c1c(Cn2cncn2)nc2cc3c(cc2c1-c1ccc(OC)c(OC)c1)OCCO3,138 to 140 °C
13,CCCC1=C(C#N)C(c2cccc(C#N)c2Br)c2c[nH]nc2N1C (stereo not drawn),218 to 220 °C
14,CC(C)NC(=O)C(O)C(Cc1ccccc1)NC(=O)OC(C)(C)C (mixture of isomers),126 to 145 °C
15,CCOC(=O)[C@@H](C)OC(=O)c1ccc([N+](=O)[O-])cc1,42 to 43 °C
16,CC/C(=C(\c1ccc(/C=C/C(=O)O)cc1)c1ccc(OC(=O)COC)cc1)c1ccccc1,190 to 191 °C
17,CN1CCN(c2cccc3c2C[C@H](NC(=O)c2ccc(N4CCCCC4)cc2)CC3)CC1,196 to 198 °C
18,OC1CCCc2nc3ccccc3c(NCc3ccccc3C(F)(F)F)c21 (stereo not drawn),158 to 160 °C
19,O=C(O)CCCCCCCCC1=CC(O)CC1=O (stereo not drawn),58 to 66 °C
20,CSC(=C[N+](=O)[O-])NCCSCc1[nH]cnc1C,147 to 150 °C

row,SMILES,melting point
1,CN(C)CCC(=O)Nc1cccc([N+](=O)[O-])c1,80 to 81 °C
2,CC12CCCC1C1CC=C3CC(O)CC(O)C3(C)C1CC2 (stereo not drawn),182 to 183 °C
3,COc1cc(O)ccc1C=CC(=O)c1ccc(O)cc1,210 to 212 °C
4,COc1cc(COC(=O)C2Cc3sccc3C(=O)N2Cc2cc(OC)c(OC)c(OC)c2)cc(OC)c1OC (stereo not drawn),55 °C
5,CSCC[C@H](N)C(=O)NC(=O)C(CS)Cc1ccccc1 (stereo partly drawn),153 to 156 °C
6,CC(C)NC(=O)NCCCOc1cc(CN2CCCCC2)ccn1,58 to 60 °C
7,CN(C)C(=O)COc1cc(Cl)ccc1C(=O)NCCN1CCN(C(=O)OC(C)(C)C)CC1,139 to 140 °C
8,O=C(O)CN1C(=O)C(=Cc2ccc(OCc3cccc(C(F)(F)F)c3)c(OCc3ccccc3)c2)SC1=S,187 to 194 °C
9,CNC(=O)Nc1occ(C(C)(C)C)c1C#N,163 °C
10,CCNC(=O)C1OC(n2cnc3c(NCC(c4ccccc4)c4ccccc4)nc(NC4CCCC4)nc32)C(O)C1O (stereo not drawn),122 to 128 °C
11,O=C(CBr)CCc1ccccc1,39 to 40 °C
12,COc1cc2c(c(OC)c1OC)CC(CCCCCCC1Cc3cc(OC)c(OC)c(OC)c3C1)C2 (stereo not drawn),69 to 70 °C
13,CN1CCN(c2ccc(C(=O)N[C@H]3CC[C@H](CCN4CCN(c5nccc6c5OCC6)CC4)CC3)cc2)CC1,236 °C
14,OCC1OC(n2cnc3c(NC4CCc5ccccc54)ncnc32)C(O)C1O (stereo not drawn),120 to 122 °C
15,CCCCc1c(-c2cc(C)c(O)c(C)c2)[nH]c2ccccc12,83.1 to 84.2 °C
16,CC(=O)Nc1ccc(-c2cc(C(=O)c3ccccc3)sc2N2CCOCC2)cc1,165 °C
17,CCNCCCOc1ccc(-c2ccc(C(=O)O)cc2)cc1-c1ccc2c(c1)C(C)(C)CCC2(C)C,233 °C
18,COC(=O)CC(S)C(CC(C)C)C(=O)NC(Cc1ccccc1)C(N)=O (stereo not drawn),64 to 66 °C
19,O=C(O)CSCC(O)CN1CCCCC1 (stereo not drawn),152 °C
20,CC(C)(C)c1cc(C=C2Sc3ccccc3N(CC(N)=O)C2=O)cc(C(C)(C)C)c1O,137 to 144 °C
